Here are results for 6 compounds from article PMC12406256, “Food Additives Inhibit Intestinal Drug Transporters but Have Limited Effect on In Vitro Drug Permeability” (Molecular Pharmaceutics, 2025).

Series [1] has as its target T1, OATP2B1 (Homo sapiens, UniProt O94956).
T1 construct: expressed in transfected cells; host or cells: HEK293 cells (ATCC) transduced with recombinant OATP2B1 baculovirus
T1 sequence (O94956 1-709): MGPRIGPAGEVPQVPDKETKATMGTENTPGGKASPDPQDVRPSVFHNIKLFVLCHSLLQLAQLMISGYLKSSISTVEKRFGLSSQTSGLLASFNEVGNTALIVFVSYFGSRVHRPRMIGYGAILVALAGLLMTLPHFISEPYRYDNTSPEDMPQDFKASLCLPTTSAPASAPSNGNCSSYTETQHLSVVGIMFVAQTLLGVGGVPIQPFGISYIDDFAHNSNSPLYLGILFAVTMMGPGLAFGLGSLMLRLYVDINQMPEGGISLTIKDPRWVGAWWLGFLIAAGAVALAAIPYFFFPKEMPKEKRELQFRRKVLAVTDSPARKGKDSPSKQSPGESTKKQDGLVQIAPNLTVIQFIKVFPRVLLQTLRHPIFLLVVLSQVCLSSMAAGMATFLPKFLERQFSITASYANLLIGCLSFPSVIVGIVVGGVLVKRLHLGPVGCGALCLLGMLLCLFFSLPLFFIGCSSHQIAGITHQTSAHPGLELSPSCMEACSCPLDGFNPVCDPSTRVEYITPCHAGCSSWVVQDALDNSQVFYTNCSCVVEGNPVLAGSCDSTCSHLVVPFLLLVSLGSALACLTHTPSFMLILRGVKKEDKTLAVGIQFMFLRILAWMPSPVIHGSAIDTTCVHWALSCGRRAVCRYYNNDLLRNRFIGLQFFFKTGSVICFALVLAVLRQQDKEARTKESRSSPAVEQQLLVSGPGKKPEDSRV
Particulars: cited from earlier work; for IC50 / Ki: previously characterized inhibitors, ref previous studies; for Ki: read-out: K i, OATP2B1.

The target in series [2] is T2, MRP2 (Homo sapiens, UniProt Q92887).
T2 construct: made in house; host or cells: Spodoptera frugiperda Sf9 cells, crude membrane vesicles
T2 sequence (Q92887 whole entry): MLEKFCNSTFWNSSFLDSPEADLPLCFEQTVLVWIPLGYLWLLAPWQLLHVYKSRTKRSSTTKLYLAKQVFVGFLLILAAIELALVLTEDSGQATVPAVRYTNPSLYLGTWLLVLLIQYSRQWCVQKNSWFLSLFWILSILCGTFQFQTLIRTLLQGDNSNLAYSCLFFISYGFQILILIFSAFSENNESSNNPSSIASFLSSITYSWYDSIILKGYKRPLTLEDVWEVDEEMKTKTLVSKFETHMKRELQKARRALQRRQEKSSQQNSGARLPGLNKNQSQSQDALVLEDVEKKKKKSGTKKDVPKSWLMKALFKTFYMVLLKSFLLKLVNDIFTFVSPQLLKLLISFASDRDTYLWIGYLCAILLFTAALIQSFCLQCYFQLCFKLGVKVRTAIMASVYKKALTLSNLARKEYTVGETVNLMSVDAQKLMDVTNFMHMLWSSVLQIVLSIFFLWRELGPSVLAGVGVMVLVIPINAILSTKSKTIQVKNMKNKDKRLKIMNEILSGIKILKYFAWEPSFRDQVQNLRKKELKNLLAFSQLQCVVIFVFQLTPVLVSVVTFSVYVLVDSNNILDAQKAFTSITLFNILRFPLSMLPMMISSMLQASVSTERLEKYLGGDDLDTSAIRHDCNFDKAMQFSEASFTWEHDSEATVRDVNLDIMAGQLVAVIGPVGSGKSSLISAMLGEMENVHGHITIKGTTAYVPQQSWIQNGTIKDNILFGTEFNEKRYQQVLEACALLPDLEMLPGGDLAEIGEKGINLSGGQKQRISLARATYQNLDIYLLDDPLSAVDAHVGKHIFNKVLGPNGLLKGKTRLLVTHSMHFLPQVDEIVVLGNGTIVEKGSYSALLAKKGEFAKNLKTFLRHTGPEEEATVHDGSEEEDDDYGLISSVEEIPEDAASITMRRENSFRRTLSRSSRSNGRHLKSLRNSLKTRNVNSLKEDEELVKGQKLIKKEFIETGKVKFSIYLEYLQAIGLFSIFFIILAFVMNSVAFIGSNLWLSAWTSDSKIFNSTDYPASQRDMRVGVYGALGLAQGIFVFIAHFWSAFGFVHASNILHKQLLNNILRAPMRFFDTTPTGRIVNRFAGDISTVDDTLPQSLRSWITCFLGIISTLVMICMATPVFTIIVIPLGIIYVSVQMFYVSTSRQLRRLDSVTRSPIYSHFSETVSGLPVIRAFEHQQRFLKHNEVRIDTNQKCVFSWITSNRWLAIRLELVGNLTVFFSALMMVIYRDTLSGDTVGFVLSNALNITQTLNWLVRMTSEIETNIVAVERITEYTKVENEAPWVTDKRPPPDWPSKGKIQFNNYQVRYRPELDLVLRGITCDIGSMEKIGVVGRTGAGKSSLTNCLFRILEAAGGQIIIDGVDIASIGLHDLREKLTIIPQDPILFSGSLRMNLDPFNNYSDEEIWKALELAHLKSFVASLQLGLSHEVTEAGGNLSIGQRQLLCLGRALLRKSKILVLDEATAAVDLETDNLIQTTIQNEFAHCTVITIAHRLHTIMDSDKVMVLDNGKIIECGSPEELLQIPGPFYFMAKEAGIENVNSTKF
Kind of series: Vesicular transport assay, MRP2 (CDCF substrate). In kind it is biochemical.
Procedure: Transport inhibition by 22 food additives was tested with Spodoptera frugiperda (Sf9) derived crude membrane vesicles expressing BCRP, MRP2, or P-gp produced in-house. […] Vesicles (50 μg total protein/well) were diluted in an assay buffer (40 mM MOPS–Tris pH 7.0, 60 mM KCl, and 6 mM MgCl2) with the substrate, and food additives (final concentration of 50 μM) in DMSO were added to the mixture. After preincubation, either the assay buffer or Mg-ATP solution (final concentration 4 mM) was added to the plate to start the reaction. The plate was incubated at 37 °C, and the reaction was stopped with an ice-cold washing mixture (40 mM MOPS-Tris pH 7.0 and 70 mM KCl). Samples were moved to a MultiScreenHTS-FB Plate Glass fiber 1.0 μm/0.65 μm Durapore filter plate (Millipore, USA), and the wells were washed five times with the ice-cold washing mixture. For BCRP and MRP2, the fluorescent substrate was eluted from the filters with 100 μL 0.1 M NaOH. […] The amount of the substrate accumulated into the vesicles was measured by fluorescent detection using a Varioskan LUX microplate reader (Thermo Fisher Scientific, Finland) (Table ).
(§3) For the efflux transporters, the relative transport was calculated as relativetransport(%ofcontrol)=transportinh,ATP−transportinh,noATP/transportDMSO,ATP−transportDMSO,noATP×100% where transportinh,ATP and transportinh,no ATP are the transport rates in the presence of food additives with or without ATP, respectively, and transportDMSO,ATP and transportDMSO,no ATP are the corresponding transport rates in the presence of the vehicle (DMSO) with or without ATP.
(§4) The half-maximal inhibitory concentrations (IC50) were calculated with GraphPad Prism version 9.0.2 (GraphPad Software, San Diego, CA) using nonlinear regression that fits the data to a four-parameter dose–response curve: relativetransport=minimum+maximum−minimum/1+([I]/IC50)^h where minimum and maximum describe the plateaus of minimal and maximal relative transport (%), [I] is the concentration of inhibitor, and h is the Hill slope, which describes the steepness of the slope.

In series [3] the target is T3, P-gp (Homo sapiens, UniProt P08183). Kind of series: Vesicular transport assay, P-gp (N-methyl-quinidine substrate). Particulars: food additive 50 μM; N-methyl-quinidine 2 μM; n = 1.
T3 sequence (P08183 whole entry): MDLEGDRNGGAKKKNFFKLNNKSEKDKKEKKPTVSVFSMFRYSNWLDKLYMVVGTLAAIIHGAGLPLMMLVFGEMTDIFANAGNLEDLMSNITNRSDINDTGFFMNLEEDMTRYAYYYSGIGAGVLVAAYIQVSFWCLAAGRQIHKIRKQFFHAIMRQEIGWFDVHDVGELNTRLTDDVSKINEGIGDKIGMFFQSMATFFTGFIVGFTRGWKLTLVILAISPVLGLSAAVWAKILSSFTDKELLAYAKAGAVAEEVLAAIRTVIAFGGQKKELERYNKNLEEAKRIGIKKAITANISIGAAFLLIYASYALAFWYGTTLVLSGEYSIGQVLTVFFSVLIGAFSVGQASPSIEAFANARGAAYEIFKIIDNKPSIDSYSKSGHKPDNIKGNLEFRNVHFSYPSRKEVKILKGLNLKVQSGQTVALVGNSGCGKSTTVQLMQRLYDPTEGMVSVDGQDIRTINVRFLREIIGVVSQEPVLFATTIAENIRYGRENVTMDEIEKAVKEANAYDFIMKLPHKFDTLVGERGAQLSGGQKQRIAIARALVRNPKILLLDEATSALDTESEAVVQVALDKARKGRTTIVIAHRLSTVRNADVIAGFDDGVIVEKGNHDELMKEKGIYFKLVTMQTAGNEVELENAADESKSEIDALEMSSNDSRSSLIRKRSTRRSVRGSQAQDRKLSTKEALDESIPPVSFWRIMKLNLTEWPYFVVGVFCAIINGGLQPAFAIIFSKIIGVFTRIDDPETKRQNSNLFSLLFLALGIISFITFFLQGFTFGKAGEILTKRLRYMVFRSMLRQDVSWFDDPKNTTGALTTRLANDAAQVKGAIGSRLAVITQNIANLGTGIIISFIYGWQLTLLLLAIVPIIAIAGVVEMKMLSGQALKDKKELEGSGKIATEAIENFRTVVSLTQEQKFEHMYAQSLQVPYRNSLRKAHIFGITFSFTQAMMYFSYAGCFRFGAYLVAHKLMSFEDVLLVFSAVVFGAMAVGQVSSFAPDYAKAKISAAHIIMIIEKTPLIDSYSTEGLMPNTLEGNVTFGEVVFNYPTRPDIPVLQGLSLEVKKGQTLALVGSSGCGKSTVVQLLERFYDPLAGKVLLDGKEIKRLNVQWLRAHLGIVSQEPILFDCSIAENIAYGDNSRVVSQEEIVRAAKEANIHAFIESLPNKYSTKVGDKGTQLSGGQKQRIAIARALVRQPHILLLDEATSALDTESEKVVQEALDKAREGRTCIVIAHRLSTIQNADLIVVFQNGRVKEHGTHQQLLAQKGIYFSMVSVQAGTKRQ
Procedure: (§5) Transport inhibition by 22 food additives was tested with Spodoptera frugiperda (Sf9) derived crude membrane vesicles expressing BCRP, MRP2, or P-gp produced in-house. […] Vesicles (50 μg total protein/well) were diluted in an assay buffer (40 mM MOPS–Tris pH 7.0, 60 mM KCl, and 6 mM MgCl2) with the substrate, and food additives (final concentration of 50 μM) in DMSO were added to the mixture. After preincubation, either the assay buffer or Mg-ATP solution (final concentration 4 mM) was added to the plate to start the reaction. The plate was incubated at 37 °C, and the reaction was stopped with an ice-cold washing mixture (40 mM MOPS-Tris pH 7.0 and 70 mM KCl). Samples were moved to a MultiScreenHTS-FB Plate Glass fiber 1.0 μm/0.65 μm Durapore filter plate (Millipore, USA), and the wells were washed five times with the ice-cold washing mixture. For BCRP and MRP2, the fluorescent substrate was eluted from the filters with 100 μL 0.1 M NaOH. For LY samples, an equal volume of 0.1 M HCl was added to neutralize the samples before fluorescence measurement. The amount of the substrate accumulated into the vesicles was measured by fluorescent detection using a Varioskan LUX microplate reader (Thermo Fisher Scientific, Finland) (Table ). The accumulation into the P-gp vesicles was measured with high-performance liquid chromatography (HPLC) (Agilent 110 series, Agilent Technologies, USA) after lysis and elution of the vesicle contents with 100 μL 3:1 methanol/water + 0.1% formic acid. The column used was a Poroshell 120 EC-C18 with a size of 4.6 × 100 mm and 2.7 μm particle size. Eluent A was 0.1% formic acid, and eluent B was acetonitrile. The flow rate of eluent was 1 mL/min, and the injection volume of samples was 10 μL. […] The retention time for NMQ was around 2.5 min.
as §3, §4
Series [4] concerns the target T3, P-gp. Further details: made in house; host or cells: Spodoptera frugiperda Sf9 cells, crude membrane vesicles. To be noted: ref Kulkarni et al.; cited from earlier work.
In series [5] the target is T1, OATP2B1. Description: HEK293 uptake assay, OATP2B1 (5-carboxyfluorescein substrate). It is filed as cell-based. To be noted: food additive 50 μM. The protocol: The inhibition of OATP2B1 was studied using a HEK293 cell-based uptake assay. HEK293 cells were cultured in DMEM supplemented with 10% FBS at 37 °C and 5% CO2 and seeded at 22,500 cells/well on 96-well plates coated with 0.1 mg/mL poly-D-lysine. After 24 h, the medium was replaced with a transduction mix (DMEM with 10% FBS, 5 mM sodium butyrate, and recombinant OATP2B1 or enhanced yellow fluorescent protein [eYFP, negative control] baculoviruses). The baculoviruses were produced as previously described. The uptake assay was performed after approximately 48 h. […] Test solutions also contained the substrate. Cells were washed with warm transport buffer and preincubated at 37 °C. Preincubation solutions were replaced with test solutions and incubated at 37 °C with shaking at 250 rpm. Transport was terminated by aspirating the test solution and washing the wells with an ice-cold transport buffer (150 μL) three times. Wells were left to dry, and cells were lysed with 0.1 M NaOH. […] Total protein concentration was measured from six random wells with a Pierce Coomassie (Bradford) Assay kit (Thermo Fisher Scientific) to ensure a similar protein concentration in the OATP2B1 and eYFP wells.

The target of series [6] is T4, BCRP (Homo sapiens, UniProt Q9UNQ0).
T4 sequence (Q9UNQ0 1-655): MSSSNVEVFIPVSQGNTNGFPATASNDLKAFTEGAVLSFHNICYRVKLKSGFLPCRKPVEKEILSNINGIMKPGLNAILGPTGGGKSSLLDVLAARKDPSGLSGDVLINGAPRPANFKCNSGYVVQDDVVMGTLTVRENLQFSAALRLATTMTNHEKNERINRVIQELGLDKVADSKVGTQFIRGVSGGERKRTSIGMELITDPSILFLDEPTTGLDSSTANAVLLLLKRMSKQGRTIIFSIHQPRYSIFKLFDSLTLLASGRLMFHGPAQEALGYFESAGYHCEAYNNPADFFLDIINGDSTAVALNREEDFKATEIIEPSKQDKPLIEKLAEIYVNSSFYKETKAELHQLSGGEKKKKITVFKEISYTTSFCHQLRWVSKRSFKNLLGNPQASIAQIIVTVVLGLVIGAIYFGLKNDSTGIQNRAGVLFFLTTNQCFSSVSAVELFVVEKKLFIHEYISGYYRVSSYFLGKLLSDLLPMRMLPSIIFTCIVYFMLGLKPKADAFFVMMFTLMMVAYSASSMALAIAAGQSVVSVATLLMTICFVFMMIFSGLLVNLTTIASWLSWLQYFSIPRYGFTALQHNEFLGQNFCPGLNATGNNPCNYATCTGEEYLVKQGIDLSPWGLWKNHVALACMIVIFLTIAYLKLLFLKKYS
To be noted: cited from earlier work; for IC50: read-out: IC50 (95% CI), BCRP, previously characterized inhibitors, ref previous studies.

The next series relates to Caco-2 cells. Description: in vitro. Particulars: for effect on sulfasalazine permeability (P app): Caco-2. As for the experimental part:
(§1) Caco-2 cells were cultured on 12-well Transwell polycarbonate membrane inserts with a 0.4 μm pore size (Corning Incorporated, Kennebunk, ME) at 37 °C and 5% CO2 for 21–24 days prior to the experiment as described in Hubatsch et al. The culture medium (DMEM, 10% FBS, 1% MEM nonessential amino acids, 100 U/mL penicillin–streptomycin) was changed every second day. Transepithelial electrical resistance (TEER) was measured before and after the permeability assay with a Millicell-ERS electrode (Millipore, Bedford, MA) attached to an epithelial volt ohm meter (EVOM, World Precision Instruments, Sarasota, FL). The permeability assay was performed according to a previously published protocol. […] Sulfasalazine is a substrate of BCRP and OATP2B1. , The DMSO concentration was 0.45–1.5%. Before the experiment, inserts were washed and preincubated in the transport buffer for 20 min shaking at 37 °C. Sulfasalazine and LY permeability was measured in the apical to basolateral direction at five time points (20, 40, 60, 90, and 120 min) and, additionally, in the basolateral to apical direction to calculate the efflux ratio. […] […] LY (250 μM) was added on the donor side of all inserts to measure the integrity of the cell monolayer. Before analysis, samples were centrifuged at 2755g for 30 min, and donor solution and mass balance samples were diluted 1:100. LY fluorescence was measured with a Varioskan LUX microplate reader (Thermo Fisher Scientific) at 430 nm excitation and 538 nm emission. Sulfasalazine was analyzed with ultra-performance liquid chromatography (UPLC) using a Syncronis C18 column (1.7 μm particle size, 50 × 2.1 mm + 0.2 μm Waters online filter) (Thermo Fisher Scientific) coupled with Waters Acquity UPLC interfaced with a PDA detector both controlled by the Waters Empower software version 3. The UPLC was operated in gradient mode at 354 nm. Solvents were 0.015 M phosphate buffer pH 2 (A), acetonitrile (B), 1:1 acetonitrile/methanol (strong needle wash), and 20% acetonitrile (weak needle wash). Column temperature was 30 °C, injection volume was 10 μL, retention time was 1.46 min, and flow rate was 0.5 mL/min. The gradient was 25% B → 70% B (0–3 min), 70% B → 25% B (3.00–3.01 min), and 25% B (3.01–4 min). The data were collected for the first 180 s of each UPLC run.
(§2) In the Caco-2 permeability assay, the apparent permeability (P app) of sulfasalazine was calculated using the following equation: Papp=(dQ/dt)(1/A×C0) where dQ/dt is the rate of permeation across the cells (nmol/min), A is the surface area of the filter (1.12 cm^2), and C 0 is the initial concentration in the donor chamber (μM). The efflux ratio of sulfasalazine was calculated by dividing the P app in the basolateral to the apical direction by the P app in the apical to basolateral direction. The TEER for each cell insert was calculated before and after the experiment by multiplying the mean resistance of three measurements by the surface area of the filter (1.12 cm^2). Mass balance was calculated by dividing the […]. All experiments were done in triplicate wells, and the IC50 and Caco-2 permeability assays were repeated three times.

In series [7] the target is T2, MRP2. Details: method as in previous studies. Particulars: previously characterized inhibitors; ref previous studies; read-out: IC50 (95% CI), MRP2; cited from earlier work.
Series [8] has as its system OATP2B1. Details: method as in Zou et al. Particulars: 25 mg/kg; P-gp-deficient mice; ref Zou et al.; cited from earlier work.
Series [9] has as its target T4, BCRP. Kind of series: Vesicular transport assay, BCRP (Lucifer yellow substrate). It is filed as biochemical. Details: made in house; host or cells: Spodoptera frugiperda Sf9 cells, crude membrane vesicles. To be noted: Sf9-derived crude membrane vesicles expressing BCRP, pH 7, probe Lucifer yellow 50 μM, food additive 50 μM, n = 1, read-out: inhibition of BCRP substrate accumulation.
Procedure: as §5, §3, §4

The nature of a further series: in vitro. To be noted: human, Caco-2, pH 7.4. The protocol: as §1, §2
Setting [10] is: pH 5.5, read-out: IC50, OATP2B1, pH 5.5.
Setting [11] is: pH 7.4, read-out: IC50, OATP2B1, pH 7.4.

Entries after “also recorded” stand apart in the source; their conditions may differ. Where two headings read alike, the source gives them in different places.

As for `Cc1cc(C(C)(C)C)c(O)c(C(C)(C)C)c1` [butylated hydroxytoluene], the OATP2B1 inhibition result at OATP2B1 [1] (ref Kulkarni et al.) was “did not inhibit; also recorded: OATP2B1-stimulating effect”. In addition, at MRP2 [2] (CDCF 5 μM, membrane vesicles, n = 3, read-out: IC50 (95% CI), MRP2), the IC50 was determined as 49 µM. For the same compound, at MRP2 [2] (Sf9-derived crude membrane vesicles expressing MRP2, pH 7, probe CDCF 5 μM, food additive 50 μM, n = 1, read-out: inhibition of MRP2 substrate accumulation), the inhibition at 50 μM is at least 50%. On P-gp [3], the “inhibition of P-gp substrate accumulation” value is recorded as “None”. The P-gp inhibition entry at P-gp [4] was “did not inhibit”. The “inhibition of OATP2B1-mediated uptake” value against OATP2B1 [5] (5-carboxyfluorescein 2 μM, HEK293 cells, n = 1) is given as “OATP2B1-stimulating effect”. For the same compound, at BCRP [6] (ref Kulkarni et al.), the BCRP inhibition result is on record as “did not inhibit”.
On to `COc1cc(S(=O)(=O)[O-])c(C)cc1N=Nc1c(O)ccc2cc(S(=O)(=O)[O-])ccc12.[Na+].[Na+]` [allura red AC], for which the values for the IC50 on OATP2B1 [1] (setting [10]), on OATP2B1 [1] (setting [11]) and on MRP2 [7] were 1.6 µM, 0.8 µM and 20 µM, respectively. The Ki at OATP2B1 [1] was 2.59 µM. Also, the “effect on sulfasalazine permeability (P app)” value (shortened to “effect … (P app)”) with Caco-2 cells was “None of the selected food additives showed any effect”. Besides, in the series on OATP2B1 [8], the “effect on fexofenadine plasma levels (OATP2B1 inhibition)” value is recorded as “decreases fexofenadine plasma levels”.
`CCCCCCCCOC(=O)c1cc(O)c(O)c(O)c1` [octyl gallate]: the “inhibition of MRP2 substrate accumulation” value at MRP2 [2] (food additive 50 μM, CDCF 5 μM, n = 1) is recorded as “did not inhibit”. The “inhibition of P-gp substrate accumulation” value against P-gp [3] is “did not inhibit”. Besides, the IC50 at MRP2 [7] is 19.2 µM; on BCRP [6], 10 µM. The inhibition at 50 μM at OATP2B1 [5] (human, HEK293 cells transduced with recombinant OATP2B1 baculovirus, pH 6, probe 5-carboxyfluorescein 2 μM, n = 1, read-out: inhibition of OATP2B1-mediated uptake) is at least 50%; on BCRP [9], at least 50%.
Regarding `CCN(Cc1cccc(S(=O)(=O)[O-])c1)c1ccc(C(=C2C=CC(=[N+](CC)Cc3cccc(S(=O)(=O)[O-])c3)C=C2)c2ccccc2S(=O)(=O)[O-])cc1.[Na+].[Na+]` [brilliant blue FCF], the IC50 was 18.4 µM on OATP2B1 [1] (setting [10]), 3.22 µM at MRP2 [7] and 1.97 µM on BCRP [6]. For the same compound, the Ki on OATP2B1 [1] was 13 µM. Moreover, the “effect … (P app)” value with Caco-2 cells is listed as “None of the selected food additives showed any effect”.
With `O=C(O)c1cc(/N=N/c2ccc(S(=O)(=O)Nc3ccccn3)cc2)ccc1O` [sulfasalazine, reference compound], in “in vitro”, the Papp A→B at 120 min, 500 μM is at most 0.1 ×10⁻⁶ cm/s; the Papp B→A at 120 min, 500 μM was about 6.5 ×10⁻⁶ cm/s; the efflux ratio at 120 min, 500 μM is over 70.
Take `O=S(=O)([O-])c1ccc(N=Nc2cc(S(=O)(=O)[O-])c3ccccc3c2O)c2ccccc12.[Na+].[Na+]` [carmoisine]: the IC50 on OATP2B1 [1] (setting [10]) was 2.9 µM; on OATP2B1 [1] (setting [11]), 9.7 µM; at MRP2 [7], 29 µM; at BCRP [6], 5.38 µM. In the series with Caco-2 cells, the “effect … (P app)” value is listed as “None of the selected food additives showed any effect”. Further, in the series with Caco-2 cells (food additive 200 μM on both sides of the cell monolayer), the “sulfasalazine P app fold change” value is listed as at most 2.
